Values joined by “and” are separate entries in the source; they are usually repeats but may differ in a detail not shown here. Equal entries are not always repeated. Inconclusive results and toxic doses are left out.

From PubChem BioAssay AID256 (DTP/NCI, 2004) come the findings set out here.

The subject of the assay is CD2F1 mice, L1210 leukemia ip, survival T/C. The assay is described as follows: NCI In Vivo Anticancer Drug Screen. Data for tumor model L1210 Leukemia (intraperitoneal) in CD2F1 (CDF1) mice. The note with it: higher = longer survival. An outline of the steps:
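Vehicle-treated tumor-bearing mice served as controls (C) for compound-treated mice (T). Reported figure is T divided by C.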

[1] abbreviates: endpoint: mean survival time, dose: 100.0 mg/kg/injection, schedule: Q01DX009 (ip), vehicle: saline.
[2] abbreviates: endpoint: mean survival time, dose: 100.0 mg/kg/injection, schedule: Q04DX003 (ip), vehicle: saline.
[3] abbreviates: endpoint: mean survival time, dose: 200.0 mg/kg/injection, schedule: Q01DX009 (ip), vehicle: saline.
The mark [4] stands for this setting: endpoint: mean survival time, dose: 200.0 mg/kg/injection, schedule: Q04DX003 (ip), vehicle: saline.
The mark [5] stands for this setting: endpoint: mean survival time, dose: 400.0 mg/kg/injection, schedule: Q04DX003 (ip), vehicle: saline.
Setting [6] is: endpoint: mean survival time, dose: 100.0 mg/kg/injection, schedule: Q04DX003 (ip), vehicle: saline with Tween-80.
The mark [7] stands for this setting: endpoint: mean survival time, dose: 200.0 mg/kg/injection, schedule: Q04DX003 (ip), vehicle: saline with Tween-80.
The mark [8] stands for this setting: endpoint: mean survival time, dose: 50.0 mg/kg/injection, schedule: Q01DX009 (ip), vehicle: saline.
The mark [9] stands for this setting: endpoint: mean survival time, dose: 50.0 mg/kg/injection, schedule: Q01DX009 (ip), vehicle: saline with Tween-80.
Setting [10] is: endpoint: mean survival time, dose: 400.0 mg/kg/injection, schedule: Q04DX003 (ip), vehicle: saline with Tween-80.
Where [11] appears, read: endpoint: mean survival time, dose: 100.0 mg/kg/injection, schedule: Q01DX009 (ip), vehicle: saline with Tween-80.
The mark [12] stands for this setting: endpoint: mean survival time, dose: 200.0 mg/kg/injection, schedule: Q01DX009 (ip), vehicle: saline with Tween-80.
Where [13] appears, read: endpoint: mean survival time, dose: 25.0 mg/kg/injection, schedule: Q04DX002 (ip), vehicle: saline with Tween-80.
Setting [14] is: endpoint: mean survival time, dose: 50.0 mg/kg/injection, schedule: Q04DX002 (ip), vehicle: saline with Tween-80.
The mark [15] stands for this setting: endpoint: mean survival time, dose: 100.0 mg/kg/injection, schedule: Q04DX002 (ip), vehicle: saline with Tween-80.
Setting [16] is: endpoint: mean survival time, dose: 75.0 mg/kg/injection, schedule: Q01DX001 (ip), vehicle: saline.

In the case of `N#CC1(O)CCCCC1`, the T/C (endpoint: mean survival time, dose: 2.5 mg/kg/injection, schedule: Q01DX009 (ip), vehicle: saline with Tween-80) was 102 % of control; the T/C (endpoint: mean survival time, dose: 5.0 mg/kg/injection, schedule: Q01DX009 (ip), vehicle: saline with Tween-80) is 104 % of control; the T/C (endpoint: mean survival time, dose: 5.0 mg/kg/injection, schedule: Q04DX003 (ip), vehicle: saline with Tween-80) was 102 % of control; the T/C (endpoint: mean survival time, dose: 10.0 mg/kg/injection, schedule: Q01DX009 (ip), vehicle: saline with Tween-80) was 94 % of control; the T/C (endpoint: mean survival time, dose: 10.0 mg/kg/injection, schedule: Q04DX003 (ip), vehicle: saline with Tween-80) is 102 % of control.
With `O=C(O)C1C2CC(O)C(C2)C1C(=O)O` (stereo unspecified), the T/C under setting [1] is 97 % of control; the T/C under setting [2] is 94 % of control; the T/C under setting [3] was 100 % of control; the T/C under setting [4] is 94 % of control; the T/C (endpoint: mean survival time, dose: 400.0 mg/kg/injection, schedule: Q01DX009 (ip), vehicle: saline) was 97 % of control; the T/C under setting [5] was 95 % of control.
Consider `Cn1c(=O)c2c(nc(NCCOC(=S)S)n2C)n(C)c1=O`, for which the T/C was 94 % of control (endpoint: mean survival time, dose: 12.5 mg/kg/injection, schedule: Q01DX005 (ip), vehicle: distilled water + Tween-80); 91 % of control (endpoint: mean survival time, dose: 25.0 mg/kg/injection, schedule: Q01DX005 (ip), vehicle: distilled water + Tween-80); 100 % of control (endpoint: mean survival time, dose: 50.0 mg/kg/injection, schedule: Q01DX005 (ip), vehicle: distilled water + Tween-80).
For the compound `CC(C)N(CCN(C)C(=O)C(O)(c1ccccc1)c1ccccc1)C(C)C`, the T/C (endpoint: mean survival time, dose: 50.0 mg/kg/injection, schedule: Q04DX003 (ip), vehicle: saline with Tween-80) is 101 % of control; the T/C under setting [6] was 93 % of control and 98 % of control; the T/C under setting [7] was 104 % of control.
In the case of `CNCc1ccc([N+](=O)[O-])cc1`, the T/C was 104 % of control under setting [8], 100 % of control under setting [1] and 93 % of control under setting [3].
With `CCCCCCCCCCCCCCCC(=O)N(CCCN)CCCN(CCCN)C(=O)CCCCCCCCCCCCCCC`, the T/C is, setting by setting: (endpoint: mean survival time, dose: 25.0 mg/kg/injection, schedule: Q01DX009 (ip), vehicle: saline with Tween-80) 97 % of control; under setting [9], 89 % of control.
For `CCOC1(c2ccccc2)c2ccccc2C(C)(C)c2ccccc21`, the T/C under setting [6] is 92 % of control and the T/C under setting [10] is 92 % of control.
As to `CC(C)C(=O)Nc1cccc(OC(=O)NC(C)(C)C)c1`, the T/C is, setting by setting: (endpoint: mean survival time, dose: 25.0 mg/kg/injection, schedule: Q01DX001 (ip), vehicle: saline with Tween-80) 100 % of control; (endpoint: mean survival time, dose: 50.0 mg/kg/injection, schedule: Q01DX001 (ip), vehicle: saline with Tween-80) 91 % of control; (endpoint: mean survival time, dose: 100.0 mg/kg/injection, schedule: Q01DX001 (ip), vehicle: saline with Tween-80) 94 % of control.
For the compound `Cc1cc2nc(Cc3nc4cc(C)c(C)cc4[nH]3)[nH]c2cc1C`, the T/C under setting [9] is 93 % of control, the T/C under setting [11] was 87 % of control and the T/C under setting [12] was 88 % of control.
For `O=[N+]([O-])c1cccc2c1cc([N+](=O)[O-])c1cccnc12`, the T/C under setting [13] is 98 % of control, the T/C under setting [14] is 98 % of control and the T/C under setting [15] was 98 % of control.
Regarding `COc1cc(C)c2c(c1C=O)Oc1c(c(C)c(O)c3c1C(O)OC3=O)OC2=O` (stereo unspecified), the T/C (endpoint: mean survival time, dose: 3.12 mg/kg/injection, schedule: Q01DX009 (ip), vehicle: saline) is 94 % of control; the T/C (endpoint: mean survival time, dose: 6.25 mg/kg/injection, schedule: Q01DX009 (ip), vehicle: saline) is 92 % of control; the T/C (endpoint: mean survival time, dose: 12.5 mg/kg/injection, schedule: Q01DX009 (ip), vehicle: saline) was 100 % of control; the T/C (endpoint: mean survival time, dose: 25.0 mg/kg/injection, schedule: Q01DX009 (ip), vehicle: saline) is 92 % of control; the T/C under setting [8] is 97 % of control.
With `CC1C=CCC2C(=O)OC(=O)C12` (stereo unspecified), the T/C runs as follows: under setting [2], 94 % of control; under setting [4], 95 % of control; under setting [5], 101 % of control.
As to `CC(C)(C)NC(C1=CC(C)(C)c2ccccc2C1=O)c1ccccc1` (stereo unspecified), the T/C is, setting by setting: (endpoint: median survival time, dose: 50.0 mg/kg/injection, schedule: Q01DX009 (ip), vehicle: Klucel (hydroxypropylcellulose) (HPC)) 101 % of control; (endpoint: median survival time, dose: 100.0 mg/kg/injection, schedule: Q01DX009 (ip), vehicle: Klucel (hydroxypropylcellulose) (HPC)) 101 % of control; (endpoint: median survival time, dose: 200.0 mg/kg/injection, schedule: Q01DX009 (ip), vehicle: Klucel (hydroxypropylcellulose) (HPC)) 101 % of control.
Consider `CN1CCCN(C)C1c1cc(Br)ccc1O`, for which the T/C reads like this: (endpoint: mean survival time, dose: 6.25 mg/kg/injection, schedule: Q01DX009 (ip), vehicle: saline sonified) 100 % of control; (endpoint: mean survival time, dose: 12.5 mg/kg/injection, schedule: Q01DX009 (ip), vehicle: saline sonified) 104 % of control; (endpoint: mean survival time, dose: 25.0 mg/kg/injection, schedule: Q01DX009 (ip), vehicle: saline sonified) 94 % of control; under setting [6], 101 % of control; under setting [7], 95 % of control; under setting [10], 95 % of control.
In the case of `CCC(C)Nc1ccc(N)cc1` (stereo unspecified), the T/C (endpoint: mean survival time, dose: 0.09 mg/kg/injection, schedule: Q01DX009 (ip), vehicle: Klucel (hydroxypropylcellulose) (HPC)) was 103 % of control; the T/C (endpoint: mean survival time, dose: 0.18 mg/kg/injection, schedule: Q01DX009 (ip), vehicle: Klucel (hydroxypropylcellulose) (HPC)) was 94 % of control; the T/C (endpoint: mean survival time, dose: 0.37 mg/kg/injection, schedule: Q01DX009 (ip), vehicle: Klucel (hydroxypropylcellulose) (HPC)) is 103 % of control; the T/C (endpoint: mean survival time, dose: 0.75 mg/kg/injection, schedule: Q01DX009 (ip), vehicle: Klucel (hydroxypropylcellulose) (HPC)) is 103 % of control; the T/C (endpoint: mean survival time, dose: 1.5 mg/kg/injection, schedule: Q01DX009 (ip), vehicle: Klucel (hydroxypropylcellulose) (HPC)) was 102 % of control; the T/C (endpoint: mean survival time, dose: 3.0 mg/kg/injection, schedule: Q01DX009 (ip), vehicle: Klucel (hydroxypropylcellulose) (HPC)) was 94 % of control.
Turning to `CCOC(=O)C1C2CCC(O2)C1C#N` (stereo unspecified), the T/C was 98 % of control under setting [13], 98 % of control under setting [14] and 98 % of control under setting [15].
Regarding `COC(=O)C(Cl)c1ccccc1` (stereo unspecified), the T/C is, setting by setting: under setting [11], 95 % of control; under setting [12], 100 % of control; (endpoint: mean survival time, dose: 400.0 mg/kg/injection, schedule: Q01DX009 (ip), vehicle: saline with Tween-80) 97 % of control.
For the compound `COc1ccc(NC(=S)N(C)C)cc1`, the T/C by setting is: under setting [6], 94 % of control; under setting [7], 90 % of control; under setting [10], 92 % of control.
As for `CC(=O)OC1C(NC(=O)N(CCCl)N=O)C(OC(C)=O)C(OC(C)=O)C(NC(=O)N(CCCl)N=O)C1OC(C)=O` (stereo unspecified), the T/C is 124 % of control (endpoint: mean survival time, dose: 20.0 mg/kg/injection, schedule: Q01DX001 (ip), vehicle: saline with Tween-80); 164 % of control (endpoint: mean survival time, dose: 60.0 mg/kg/injection, schedule: Q01DX001 (ip), vehicle: saline with Tween-80); 160 % of control (endpoint: mean survival time, dose: 90.0 mg/kg/injection, schedule: Q01DX001 (ip), vehicle: saline with Tween-80); 174 % of control (endpoint: mean survival time, dose: 130.0 mg/kg/injection, schedule: Q01DX001 (ip), vehicle: saline with Tween-80); 168 % of control (endpoint: mean survival time, dose: 200.0 mg/kg/injection, schedule: Q01DX001 (ip), vehicle: saline with Tween-80); 218 % of control (endpoint: mean survival time, dose: 300.0 mg/kg/injection, schedule: Q01DX001 (ip), vehicle: saline with Tween-80).
As for `O=C(COc1ccccc1)Nc1ccc(Br)cc1`, the T/C is 97 % of control (endpoint: mean survival time, dose: 100.0 mg/kg/injection, schedule: Q01DX001 (ip), vehicle: Klucel (hydroxypropylcellulose) (HPC)); 105 % of control (endpoint: mean survival time, dose: 200.0 mg/kg/injection, schedule: Q01DX001 (ip), vehicle: Klucel (hydroxypropylcellulose) (HPC)); 105 % of control (endpoint: mean survival time, dose: 400.0 mg/kg/injection, schedule: Q01DX001 (ip), vehicle: Klucel (hydroxypropylcellulose) (HPC)).
For the compound `Cc1c2ccccc2c(CN2CC(O)CC2C(=O)O)c2ccccc12` (stereo unspecified), the T/C under setting [6] is 94 % of control, the T/C under setting [7] is 93 % of control and the T/C under setting [10] was 87 % of control.
In the case of `FC1(F)C(I)=C(I)C1(F)F`, the T/C is, setting by setting: under setting [16], 97 % of control; (endpoint: mean survival time, dose: 150.0 mg/kg/injection, schedule: Q01DX001 (ip), vehicle: saline) 103 % of control; (endpoint: mean survival time, dose: 300.0 mg/kg/injection, schedule: Q01DX001 (ip), vehicle: saline) 105 % of control.
Take `COc1ccc2c(c1O)CNCC2c1ccc(O)c(C)c1` (stereo unspecified): under setting [16], the T/C is 98 % of control.
